# Results: patent US5747327A, “Phospholipase D gene originated from plant” (priority 1993, dated 1998)
# Experiments:
# [1] = target: T1, rice bran phospholipase D (PLD), Oryza sativa variety Koshihikari, eluted solution Mono Q 2nd-I (Oryza sativa, UniProt Q43007); assay: Km of purified rice bran PLD, fraction Mono Q 2nd-I (choline oxidase method); format: biochemical; settings: Mono Q 2nd-I fraction; phosphatidylcholine as the substrate, choline quantified by choline oxidase method
# T1 construct: processed N-terminus (residues 1-46 removed according to earlier note), precursor 812 aa
# T1 sequence (Q43007 47-812 P139S): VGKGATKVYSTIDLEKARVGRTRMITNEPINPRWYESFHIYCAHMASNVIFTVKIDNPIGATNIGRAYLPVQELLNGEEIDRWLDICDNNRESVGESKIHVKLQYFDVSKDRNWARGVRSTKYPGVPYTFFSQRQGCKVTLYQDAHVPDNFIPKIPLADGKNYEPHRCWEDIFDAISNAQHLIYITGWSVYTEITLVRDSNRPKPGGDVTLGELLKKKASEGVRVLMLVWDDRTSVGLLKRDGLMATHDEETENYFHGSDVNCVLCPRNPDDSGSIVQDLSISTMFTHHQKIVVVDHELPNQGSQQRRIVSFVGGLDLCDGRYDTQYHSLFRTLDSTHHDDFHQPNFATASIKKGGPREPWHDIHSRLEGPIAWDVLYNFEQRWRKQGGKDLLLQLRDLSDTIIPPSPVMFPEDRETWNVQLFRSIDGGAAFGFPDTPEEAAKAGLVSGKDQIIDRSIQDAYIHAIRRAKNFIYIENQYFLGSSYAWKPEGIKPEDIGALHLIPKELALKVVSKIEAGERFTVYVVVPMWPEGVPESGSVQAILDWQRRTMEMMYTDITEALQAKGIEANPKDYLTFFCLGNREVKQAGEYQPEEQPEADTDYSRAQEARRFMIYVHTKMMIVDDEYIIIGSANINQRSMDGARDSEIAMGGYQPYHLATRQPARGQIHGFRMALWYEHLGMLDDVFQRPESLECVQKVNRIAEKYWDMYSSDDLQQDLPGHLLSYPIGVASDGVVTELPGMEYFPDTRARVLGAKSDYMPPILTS
# Description: (§1) For the purification, a reference relating to the purification of rice bran PLD (Takano et al., J. Jpn. Soc. Food Sci. Technol., 34, 8-13 (1987)) was referred. The enzyme activity was measured by using phosphatidylcholine as the substrate and by quantifying the choline generated by the enzyme reaction by the choline oxidase method (Imamura et al., J. Biochem. 83, 677-680 (1978)). The enzyme reaction, however, was stopped by heat treatment at 95° C. for 5 minutes.
# (§2) The two fractions were analyzed for properties of the enzymes contained therein. […] The pH stability means the range in which decrease in activity was not observed after leaving the enzyme to stand at 25° C. for 30 minutes. The temperature stability was measured by measuring remaining activity after leaving the enzyme to stand at 4° C., 25° C., 37° C. or 50° C. for 30 minutes. The substrate specificity was measured at a substrate concentration of 5 mM and is expressed as a relative activity taking the enzyme activity to phosphatidylcholine as 100.
# [2] = target: T2, rice bran phospholipase D (PLD), Oryza sativa variety Koshihikari, eluted solution Mono Q 2nd-II (Oryza sativa, UniProt Q43007); assay: Km of purified rice bran PLD, fraction Mono Q 2nd-II (choline oxidase method); format: biochemical; settings: Mono Q 2nd-II fraction; phosphatidylcholine as the substrate, choline quantified by choline oxidase method
# T2 construct: processed N-terminus (residues 1-46 removed according to earlier note), precursor 812 aa
# T2 sequence (Q43007 47-812 P139S): as above
# Description: as §1, §2
substance,measurement,setting,value
phosphatidylcholine,Km,[1],290 µM
same,Km,[2],290 µM
